row,melting point,SMILES
1,195 to 205 °C,"CN1CCN(c2ccc(C(=O)c3sc(NC(=O)c4ccncc4)nc3-c3ccco3)cn2)CC1 [Compound 232, N-{4-(2-Furyl)-5-[2-(4-methylpiperazin-1-yl)pyridin-5-ylcarbonyl]thiazol-2-yl}pyridine-4-carboxamide]"
2,245 to 248 °C,"O=C(Nc1nc(-c2ccco2)c(C(=O)c2ccco2)s1)c1ccncc1 [Compound 249, N-[4-(Furan-2-yl)-5-(furan-2-ylcarbonyl)thiazol-2-yl]pyridine-4-carboxamide]"
3,185 to 186 °C,"O=C(Nc1nc(-c2ccco2)c(C(=O)C2CCOCC2)s1)c1ccccn1 [Compound 412, N-[4-(2-Furyl)-5-(tetrahydropyran-4-ylcarbonyl)thiazol-2-yl]pyridine-2-carboxamide]"
4,260 to 265 °C (dec.),"CN(C)c1ccc(C(=O)c2sc(NC(=O)c3ccncc3)nc2-c2ccco2)cn1 [Compound 230, N-{5-[2-(Dimethylamino)pyridin-5-ylcarbonyl]-4-(2-furyl)thiazol-2-yl}pyridine-4-carboxamide]"
5,92 to 96 °C,"O=C(Nc1nc(-c2ccco2)c(C(=O)C2CCOCC2)s1)c1ccc(CN2CCOCC2)cc1 [Compound 387, N-[4-(2-Furyl)-5-(tetrahydropyran-4-ylcarbonyl)thiazol-2-yl]-4-(morpholinomethyl)benzamide]"
6,193 to 195 °C,"O=C(CN1CCC(N2CCOCC2)CC1)Nc1nc(-c2ccco2)c(C(=O)C2CCOCC2)s1 [Compound 458, N-[4-(2-Furyl)-5-(tetrahydropyran-4-ylcarbonyl)thiazol-2-yl]-2-(4-morpholinopiperidino)acetamide]"
7,144 to 145 °C,"O=C(c1ccccn1)c1sc(NC(=O)N2CCOCC2)nc1-c1ccco1 [Compound 164, N-[4-(2-Furyl)-5-(pyridin-2-ylcarbonyl)thiazol-2-yl]morpholine-4-carboxamide]"
8,240 to 245 °C,"Cc1ccnc(C(=O)c2sc(NC(=O)c3ccncc3)nc2-c2ccco2)c1 [Compound 203, N-[4-(2-Furyl)-5-(4-methylpyridin-2-ylcarbonyl)thiazol-2-yl]pyridine-4-carboxamide]"
9,177 to 180 °C,"O=C(Nc1nc(-c2ccco2)c(C(=O)C2CCOCC2)s1)c1ccc(OC(F)(F)F)cc1 [Compound 382, N-[4-(2-Furyl)-5-(tetrahydropyran-4-ylcarbonyl)thiazol-2-yl]-4-(trifluoromethoxy)benzamide]"
10,140 to 142 °C,"O=C(Cc1ccccc1)Nc1nc(-c2ccco2)c(C(=O)C2CCOCC2)s1 [Compound 431, N-[4-(2-Furyl)-5-(tetrahydropyran-4-ylcarbonyl)thiazol-2-yl]-2-phenylacetamide]"
11,195 to 196 °C,"Cn1c(-c2sc(NC(=O)c3ccccc3)nc2-c2ccco2)cc2ccccc21 [Compound 36, N-[4-(2-Furyl)-5-(1-methylindol-2-yl)thiazol-2-yl]benzamide]"
12,232 to 235 °C,"O=C1CCC(C(=O)c2sc(NC(=O)c3ccco3)nc2-c2ccco2)CC1 [Compound 355, N-[4-(2-Furyl)-5-(4-oxocyclohexylcarbonyl)thiazol-2-yl]-furan-2-carboxamide]"
13,229 to 231 °C,"O=C(Nc1nc(-c2ccco2)c(C(=O)C2CCOCC2)s1)c1cccc(F)c1 [Compound 372, 3-Fluoro-N-[4-(2-furyl)-5-(tetrahydropyran-4-ylcarbonyl)-thiazol-2-yl]benzamide]"
14,187 to 188 °C,"COc1ccc(C(=O)Nc2nc(-c3ccco3)c(C(=O)c3ccccn3)s2)cc1 [Compound 110, N-[4-(2-Furyl)-5-(pyridin-2-ylcarbonyl)thiazol-2-yl]-4-methoxybenzamide]"
15,238 to 240 °C,"CN(C)c1ccc(C(=O)Nc2nc(-c3ccco3)c(C(=O)C3CCOCC3)s2)cc1 [Compound 370, 4-(Dimethylamino)-N-[4-(2-furyl)-5-(tetrahydropyran-4-ylcarbonyl)thiazol-2-yl]benzamide]"
16,186 to 187 °C,"CC(C)(C)C(=O)Nc1nc(-c2ccco2)c(C(=O)c2ccccn2)s1 [Compound 98, N-[4-(2-Furyl)-5-(pyridin-2-ylcarbonyl)thiazol-2-yl]-2,2-dimethylpropanamide]"
17,178 to 180 °C,"COc1ccc(-c2c[nH]c(-c3nc(-c4ccco4)c(C(=O)C4CCOCC4)s3)n2)cc1 [Compound 520, 4-(2-Furyl)-2-[4-(4-methoxyphenyl)imidazol-2-yl]thiazol-5-yl tetrahydropyran-4-yl ketone]"
18,150 to 154 °C,"O=C(Nc1nc(-c2ccco2)c(C(=O)c2ccccn2)s1)c1cnc(C2CC2)nc1 [Compound 137, 2-Cyclopropyl-N-[4-(2-furyl)-5-(pyridin-2-ylcarbonyl)thiazol-2-yl]pyrimidine-5-carboxamide]"
19,216 to 217 °C,"CC(=O)Nc1nc(-c2ccco2)c(C(=O)c2ccccn2)s1 [Compound 96, N-[4-(2-Furyl)-5-(pyridin-2-ylcarbonyl)thiazol-2-yl]-acetamide]"
20,94 to 96 °C,"CN1CCCN(CC(=O)Nc2nc(-c3ccco3)c(C(=O)C3CCOCC3)s2)CC1 [Compound 481, N-[4-(2-Furyl)-5-(tetrahydropyran-4-ylcarbonyl)thiazol-2-yl]-2-(4-methyl-1,4-diazepan-1-yl)acetamide]"
21,239 to 243 °C,"Cc1cncc(C(=O)Nc2nc(-c3ccco3)c(C(=O)C3CCOCC3)s2)c1 [Compound 411, N-[4-(2-Furyl)-5-(tetrahydropyran-4-ylcarbonyl)thiazol-2-yl]-5-methylpyridine-3-carboxamide]"
22,109 to 112 °C,"CN(C)Cc1ccc(C(=O)Nc2nc(-c3ccco3)c(C(=O)C3CCOCC3)s2)cc1 [Compound 384, 4-(Dimethylaminomethyl)-N-[4-(2-furyl)-5-(tetrahydropyran-4-ylcarbonyl)thiazol-2-yl]benzamide]"
23,206 to 212 °C,"O=C1CCC(C(=O)c2sc(NC(=O)c3ccncc3)nc2-c2ccco2)CC1 [Compound 353, N-[4-(2-Furyl)-5-(4-oxocyclohexylcarbonyl)thiazol-2-yl]-pyridine-4-carboxamide]"
24,200 to 205 °C,"O=C(Nc1nc(-c2ccco2)c(C(=O)C2CCOCC2)s1)c1cnccn1 [Compound 414, N-[4-(2-Furyl)-5-(tetrahydropyran-4-ylcarbonyl)thiazol-2-yl]pyrazine-2-carboxamide]"
25,270 to 272 °C (dec.),"Cc1nc(C(=O)c2sc(NC(=O)c3ccncc3)nc2-c2ccco2)sc1C [Compound 258, N-[5-(4,5-Dimethylthiazol-2-ylcarbonyl)-4-(2-furyl)thiazol-2-yl]pyridine-4-carboxamide]"
26,102 to 103 °C,"COC[C@@H]1CCCN1CC(=O)Nc1nc(-c2ccco2)c(C(=O)C2CCOCC2)s1 [Compound 443, N-[4-(2-Furyl)-5-(tetrahydropyran-4-ylcarbonyl)thiazol-2-yl]-2-[(2S)-2-(methoxymethyl)pyrrolidin-1-yl]acetamide]"
27,105 to 107 °C,"COC(C)(C)CN1CCN(CC(=O)Nc2nc(-c3ccco3)c(C(=O)C3CCOCC3)s2)CC1 [Compound 471, N-[4-(2-Furyl)-5-(tetrahydropyran-4-ylcarbonyl)thiazol-2-yl]-2-[4-(2-methoxy-2-methylpropyl)piperazin-1-yl]acetamide]"

# From patent publication US7928098B2, “Therapeutic and/or preventive agents for a sleep disorder” (Kyowa Hakko Kirin Co., Ltd., priority 2005, dated 2011)
